Experiments:
[1] = tested on: Staphylococcus epidermidis 1601-1; assay: MIC and FIC, Nutrient agar (Tests 2, 3); assay type: cell-based; details: 16011, S. epidermidis 1601-1, 20 h
Procedure: (§1) After the incubation was carried out at 37° C. for 20 hours, MIC values were determined.

[2] = tested on: Klebsiella pneumoniae NCTC 418; assay: MIC and FIC, Nutrient agar (Tests 2, 3); assay type: cell-based; details: NCTC418, K. pneumoniae NCTC 418, 20 h
Procedure: as §1

[3] = tested on: Shigella flexneri Ia EW-8; assay: MIC and FIC, Nutrient agar (Test 2); assay type: cell-based; details: IAEW8, S. flexneri Ia EW-8, 20 h
Procedure: as §1

[4] = tested on: Salmonella enteritidis 1891; assay: MIC and FIC, Nutrient agar (Test 2); assay type: cell-based; details: Salmonella enterica; S. enteritidis 1891; 20 h
Procedure: as §1

[5] = tested on: Salmonella typhimurium 1406; assay: MIC and FIC, Nutrient agar (Tests 2, 3); assay type: cell-based; details: Salmonella enterica, TYPHIMURIUM, 20 h
[6] = tested on: Salmonella paratyphi A-1015; assay: MIC and FIC, Nutrient agar (Test 2); assay type: cell-based; details: Salmonella enterica; S. paratyphi A-1015; 20 h
Procedure: as §1
(§2) FIC values and FIC Index were calculated in substantially the same manner as described in Test 1.

[7] = tested on: Serratia marcescens 1421-4; assay: MIC and FIC, Nutrient agar (Tests 2, 3); assay type: cell-based; details: Serratia marcescens, 14214, 20 h
[8] = tested on: Enterobacter aerogenes 1402-10; assay: MIC and FIC, Nutrient agar (Tests 2, 3); assay type: cell-based; details: Klebsiella aerogenes, 140210, 20 h
[9] = tested on: Enterobacter cloacae 1401-4; assay: MIC and FIC, Nutrient agar (Tests 2, 3); assay type: cell-based; details: E. cloacae 1401-4
[10] = tested on: Proteus mirabilis 1432-75; assay: MIC and FIC, Nutrient agar (Tests 2, 3); assay type: cell-based; details: Proteus mirabilis, 143275, 20 h
[11] = tested on: Proteus vulgaris IAM-1025; assay: MIC and FIC, Nutrient agar (Test 2); assay type: cell-based; details: IAM1025, P. vulgaris IAM-1025, 20 h
Procedure: as §1, §2

Proteus morganii 1433-2 = assay: MIC and FIC, Nutrient agar (Tests 2, 3); assay type: cell-based; details: Morganella morganii, 14332; P. morganii 1433-2; 20 h
Procedure: as §1

[12] = tested on: Escherichia coli 1341-18R^+; assay: MIC and FIC, Nutrient agar (Test 3); assay type: cell-based; details: 20 h
Proteus rettgeri 1434-3 = assay: MIC and FIC, Nutrient agar (Test 3); assay type: cell-based; details: Providencia rettgeri, 14343; P. rettgeri 1434-3; 20 h
Procedure: as §1, §2

[13] = tested on: Pseudomonas aeruginosa 1101-76; assay: MIC and FIC, Nutrient agar (Test 3); assay type: cell-based; details: Pseudomonas aeruginosa, 110176, 20 h
[14] = tested on: Pseudomonas aeruginosa No.5; assay: MIC and FIC, Nutrient agar, multiple inoculator (Tests 4, 5); assay type: cell-based; details: Pseudomonas aeruginosa; P. aeruginosa No.5; 10^8 cells/ml, 20 h; read-out: MIC
Procedure: as §1

[15] = tested on: Pseudomonas aeruginosa No.7; assay: MIC and FIC, Nutrient agar, multiple inoculator (Test 4); assay type: cell-based; details: P. aeruginosa No.7, 10^8 cells/ml, 20 h
Procedure: as §1, §2

[16] = tested on: Pseudomonas aeruginosa No.15; assay: as above; assay type: cell-based; details: P. aeruginosa No.15, 10^8 cells/ml, 20 h
Procedure: as §1, §2

[17] = tested on: Pseudomonas aeruginosa No.11; assay: MIC and FIC, Nutrient agar, multiple inoculator (Test 5); assay type: cell-based; details: Pseudomonas aeruginosa; P. aeruginosa No.11; 10^8 cells/ml, 20 h; read-out: MIC
Procedure: as §1, §2

[18] = tested on: Pseudomonas aeruginosa No.13; assay: as above; assay type: cell-based; details: Pseudomonas aeruginosa; P. aeruginosa No.13; 10^8 cells/ml, 20 h; read-out: MIC
Procedure: as §1, §2

[19] = tested on: Pseudomonas aeruginosa No.18; assay: as above; assay type: cell-based; details: Pseudomonas aeruginosa; P. aeruginosa No.18; 10^8 cells/ml, 20 h; read-out: MIC
Procedure: as §1, §2

Citrobacter freundii 35 = assay: MIC and FIC, Nutrient agar (Tests 6, 7, 9); assay type: cell-based
Enterobacter aerogenes 7 = assay: MIC and FIC, Nutrient agar (Tests 6, 7, 9); assay type: cell-based; details: Klebsiella aerogenes; E. aerogenes 7; 18 h; read-out: MIC
Procedure: as §2

Serratia marcescens 9 = assay: MIC and FIC, Nutrient agar (Test 6); assay type: cell-based; details: Serratia marcescens; S. marcescens 9; 18 h; read-out: MIC
Procedure: as §2

Proteus vulgaris 5 = assay: MIC and FIC, Nutrient agar (Test 6); assay type: cell-based; details: Proteus vulgaris; P. vulgaris 5; 18 h; read-out: MIC
Procedure: as §2

Escherichia coli 82 = assay: MIC and FIC, Nutrient agar (Test 7); assay type: cell-based; details: E. coli 82, 18 h
Procedure: as §2

[20] = tested on: Enterobacter aerogenes 25; assay: microbe, parasite or virus in culture; details: Klebsiella aerogenes, 25, 18 h
[21] = tested on: Pseudomonas aeruginosa 77; assay: MIC and FIC, Nutrient agar (Test 7); assay type: cell-based; details: P. aeruginosa 77, 18 h
Procedure: as §2

Staphylococcus aureus 2 = assay: MIC and FIC, Nutrient agar (Test 7); assay type: cell-based; details: S. aureus 2, 18 h
Procedure: as §2

Serratia marcescens 27 = assay: MIC and FIC, Nutrient agar (Test 7); assay type: cell-based; details: S. marcescens 27, 18 h
Procedure: as §2

[22] = tested on: Pseudomonas aeruginosa 42; assay: MIC and FIC, Nutrient agar (Test 7); assay type: cell-based; details: Pseudomonas aeruginosa; P. aeruginosa 42; 18 h; read-out: MIC
Procedure: as §2

Staphylococcus aureus 1 = assay: MIC and FIC, Nutrient agar (Test 7); assay type: cell-based; details: S. aureus 1, 18 h
Procedure: as §2

Citrobacter freundii 63 = assay: MIC and FIC, Nutrient agar (Test 9); assay type: cell-based; details: C. freundii 63, 18 h
Procedure: as §2

Proteus vulgaris 22 = assay: MIC and FIC, Nutrient agar (Test 9); assay type: cell-based; details: P. vulgaris 22, 18 h
Procedure: as §2

Klebsiella pneumoniae 8 = assay: Isobologram, growth in Nutrient broth in various combination ratios (Test 8); assay type: cell-based; set-up: key: +: the test microorganism grew; -: the test microorganism did not grow; details: gentamicin sulfate 0
Procedure: After the incubation was carried out at 37° C. for 18 hours, the growth of the test organism was observed.

Escherichia coli 99 = assay: MIC and FIC, Nutrient agar (Test 6); details: Escherichia coli, 99, 18 h
Procedure: as §2

O=CN(O)CCCP(=O)(O)O [A (Table 2)]
25 µg/mL: MIC [2] | MIC (Proteus vulgaris 5) | MIC (Escherichia coli 99)
400 µg/mL: MIC (Serratia marcescens 27) | MIC (Staphylococcus aureus 1)
200 µg/mL: MIC [15] | MIC (Serratia marcescens 9) | MIC (Staphylococcus aureus 2)
> 800 µg/mL: MIC [16] | MIC [17] | MIC [19]
100 µg/mL: MIC (Citrobacter freundii 35; C. freundii 35, 18 h, listed as A (Table 9)) | MIC (Citrobacter freundii 35; C. freundii 35, 18 h, listed as A (Table 10)) | MIC (Citrobacter freundii 35; Citrobacter freundii, 35, 18 h, C. freundii 35, 18 h) | MIC (Enterobacter aerogenes 7) | MIC (Escherichia coli 82) | MIC [20]
1.56 µg/mL: MIC [3] | MIC [10] | MIC [11] | MIC (Proteus rettgeri 1434-3) | MIC [13]
6.25 µg/mL: MIC [5] | MIC [6] | MIC [8] | MIC [12] | MIC [21] | MIC (Proteus vulgaris 22)
3.16 µg/mL: MIC ([9]; 20 h, listed as A (Table 3))
+: growth of the test organism (Klebsiella pneumoniae 8; phosphonic acid salt 0.78 mcg/ml) | growth of the test organism (Klebsiella pneumoniae 8; phosphonic acid salt 1.56 mcg/ml) | growth of the test organism (Klebsiella pneumoniae 8; phosphonic acid salt 3.13 mcg/ml) | growth of the test organism (Klebsiella pneumoniae 8; phosphonic acid salt 6.25 mcg/ml) | growth of the test organism (Klebsiella pneumoniae 8; phosphonic acid salt 12.5 mcg/ml)
0.78 µg/mL: MIC [4]
-: growth of the test organism (Klebsiella pneumoniae 8; phosphonic acid salt 25 mcg/ml)
800 µg/mL: MIC [14] | MIC [18]
50 µg/mL: MIC [7] | MIC (Citrobacter freundii 35; Citrobacter freundii, 35, 18 h) | MIC [22] | MIC (Citrobacter freundii 63)
≥ 400 µg/mL: MIC [1] | MIC (Proteus morganii 1433-2)
3.13 µg/mL: MIC ([9]; 20 h, listed as A (Table 4)) | MIC ([9]; Enterobacter cloacae, 14014, 20 h)
